Measurements published in patent US20150141381A1, “TETRACYCLINE COMPOUNDS HAVING TARGET THERAPEUTIC ACTIVITIES” (Paratek Pharmaceuticals, Inc., priority 2001, published 2015).

Experiments:
E. coli mL308 225 = assay: In Vitro Anti-Bacterial Activity Assay (MIC), gram negative; assay type: cell-based; conditions: Escherichia coli, ML308225, 18 h, MIC class, Table 3; read-out: Antibiotic Activity Gram −
S. aureus RN450 = assay: In Vitro Anti-Bacterial Activity Assay (MIC), gram positive; assay type: cell-based; conditions: Staphylococcus aureus, RN450, 18 h, MIC class, Table 3; read-out: Antibiotic Activity Gram +

Structure (SMILES) | MIC (E. coli mL308 225) [µg/mL] | MIC (S. aureus RN450) [µg/mL]
COC(=O)CCC(=O)Nc1ccc2c(c1O)C(=O)C1=C(O)[C@]3(O)C(=O)C(C(N)=O)=C(O)[C@@H](N(C)C)[C@@H]3C[C@@H]1C2 [IB] | > 4 | > 4
CO/N=C(/C)c1cc(C(C)(C)C)c(O)c2c1C[C@H]1C[C@H]3[C@H](N(C)C)C(O)=C(C(N)=O)C(=O)[C@@]3(O)C(O)=C1C2=O [IC] | > 4 | < 4
CN(C)c1ccc(-c2cc(N)c(O)c3c2C[C@H]2C[C@H]4[C@@H](N(C)C)C(O)=C(C(N)=O)C(=O)[C@@]4(O)C(O)=C2C3=O)cc1 [ID] | > 4 | < 4
Cc1noc(C)c1S(=O)(=O)NCc1ccc(O)c2c1C[C@H]1C[C@H]3[C@H](N(C)C)C(O)=C(C(N)=O)C(=O)[C@@]3(O)C(O)=C1C2=O [IG] | > 4 | < 4
CN(C)[C@@H]1C(O)=C(C(N)=O)C(=O)[C@@]2(O)C(O)=C3C(=O)c4c(ccc(NC(=O)c5ccno5)c4O)C[C@H]3C[C@@H]12 [IJ] | > 4 | < 4
COC(=O)c1cc(NC(=O)c2ccno2)cc(-c2ccc(O)c3c2C[C@H]2C[C@H]4[C@H](N(C)C)C(O)=C(C(N)=O)C(=O)[C@@]4(O)C(O)=C2C3=O)c1 [IK] | > 4 | < 4
CN(C)[C@@H]1C(O)=C(C(N)=O)C(=O)[C@@]2(O)C(O)=C3C(=O)c4c(ccc(NC(=O)N5CCOCC5)c4O)C[C@H]3C[C@@H]12 [IL] | > 4 | > 4
CN(C)[C@@H]1C(O)=C(C(N)=O)C(=O)[C@@]2(O)C(O)=C3C(=O)c4c(O)ccc(NC(=O)c5ccno5)c4C[C@H]3C[C@@H]12 [IM] | > 4 | < 4
CN(C)[C@@H]1C(O)=C(C(N)=O)C(=O)[C@@]2(O)C(O)=C3C(=O)c4c(O)ccc(-c5ccc(NC(=O)c6ccno6)cc5)c4C[C@H]3C[C@@H]12 [IN] | > 4 | < 4
Cc1noc(C)c1S(=O)(=O)Nc1ccc2c(c1O)C(=O)C1=C(O)[C@]3(O)C(=O)C(C(N)=O)=C(O)[C@@H](N(C)C)[C@@H]3C[C@@H]1C2 [IP] | > 4 | < 4
COc1ccc(-c2ccc(O)c3c2C[C@H]2C[C@H]4[C@H](N(C)C)C(O)=C(C(N)=O)C(=O)[C@@]4(O)C(O)=C2C3=O)cc1CN(C)C [IT] | < 4 | < 4
CCc1cc(C(C)=O)c(O)c2c1C[C@H]1C[C@H]3[C@H](N(C)C)C(O)=C(C(N)=O)C(=O)[C@@]3(O)C(O)=C1C2=O [IY] | > 4 | < 4
CCc1cc(CNCC(C)C)c(O)c2c1C[C@H]1C[C@H]3[C@H](N(C)C)C(O)=C(C(N)=O)C(=O)[C@@]3(O)C(O)=C1C2=O [IZ] | < 4 | < 4
COc1ccc(CNC2CCCCC2)cc1-c1ccc(O)c2c1C[C@H]1C[C@H]3[C@H](N(C)C)C(O)=C(C(N)=O)C(=O)[C@@]3(O)C(O)=C1C2=O [I] | < 4 | < 4
C[C@H]1c2ccc(-c3cccc(CN4CCN(C)CC4)c3)c(O)c2C(=O)C2=C(O)[C@]3(O)C(=O)C(C(N)=O)=C(O)[C@@H](N(C)C)[C@@H]3[C@@H](O)[C@@H]21 [JA] | > 4 | > 4
C[C@H]1c2ccc(NC3CCN(C)CC3)c(O)c2C(=O)C2=C(O)[C@]3(O)C(=O)C(C(N)=O)=C(O)[C@@H](N(C)C)[C@@H]3[C@@H](O)[C@@H]21 [JF] | < 4 | < 4
C[C@H]1c2ccc(CNCC(C)(C)C)c(O)c2C(=O)C2=C(O)[C@]3(O)C(=O)C(C(N)=O)=C(O)[C@@H](N(C)C)[C@@H]3[C@@H](O)[C@@H]21 [JG] | < 4 | < 4
CC(C)CNCc1ccc2c(c1O)C(=O)C1=C(O)[C@]3(O)C(=O)C(C(N)=O)=C(O)[C@@H](N(C)C)[C@@H]3[C@@H](O)[C@@H]1[C@H]2C [JH] | < 4 | < 4
C[C@H]1c2ccc(CNCCc3ccccc3)c(O)c2C(=O)C2=C(O)[C@]3(O)C(=O)C(C(N)=O)=C(O)[C@@H](N(C)C)[C@@H]3[C@@H](O)[C@@H]21 [JI] | < 4 | < 4
C[C@H]1c2ccc(NC3CCN(Cc4ccccc4)CC3)c(O)c2C(=O)C2=C(O)[C@]3(O)C(=O)C(C(N)=O)=C(O)[C@@H](N(C)C)[C@@H]3[C@@H](O)[C@@H]21 [JK] | < 4 | < 4
CCc1cc(CNC(=O)CN(C)C)c(O)c2c1C[C@H]1C[C@H]3[C@@H](N(C)C)C(O)=C(C(N)=O)C(=O)[C@@]3(O)C(O)=C1C2=O [JL] | > 4 | < 4
COc1ccc(-c2ccc(O)c3c2C[C@H]2C[C@H]4[C@H](N(C)C)C(O)=C(C(N)=O)C(=O)[C@@]4(O)C(O)=C2C3=O)c(OC)c1OC [JM] | > 4 | < 4
CN(C)[C@@H]1C(O)=C(C(N)=O)C(=O)[C@@]2(O)C(O)=C3C(=O)c4c(O)ccc(NC5CCN(Cc6ccccc6)CC5)c4C[C@H]3C[C@@H]12 [JN] | < 4 | < 4
C[C@H]1c2ccc(CNC(=O)c3ccccc3)c(O)c2C(=O)C2=C(O)[C@]3(O)C(=O)C(C(N)=O)=C(O)[C@@H](N(C)C)[C@@H]3[C@@H](O)[C@@H]21 [JO] | > 4 | < 4

Structure (SMILES) | MIC (E. coli mL308 225) [µg/mL] | MIC (S. aureus RN450) [µg/mL]
CCCCN(c1ccc2c(c1O)C(=O)C1=C(O)[C@]3(O)C(=O)C(C(N)=O)=C(O)[C@@H](N(C)C)[C@@H]3C[C@@H]1C2)C1CCN(C)CC1 [JR] | > 4 | > 4
CN(C)C1C(O)=C(C(N)=O)C(=O)[C@@]2(O)C(O)=C3C(=O)c4c(O)ccc(NS(C)(=O)=O)c4C[C@H]3C[C@@H]12 (stereo partly shown) [JS] | > 4 | < 4
CN(C)[C@@H]1C(O)=C(C(N)=O)C(=O)[C@@]2(O)C(O)=C3C(=O)c4c(ccc(N)c4O)C[C@H]3C[C@@H]12 [JU] | < 4 | < 4
C[C@H]1c2ccc(N3CCCCC3)c(O)c2C(=O)C2=C(O)[C@]3(O)C(=O)C(C(N)=O)=C(O)[C@@H](N(C)C)[C@@H]3[C@@H](O)[C@@H]21 [JV] | > 4 | < 4
CC(=O)c1cc(I)c(O)c2c1C[C@H]1C[C@H]3[C@H](N(C)C)C(O)=C(C(N)=O)C(=O)[C@@]3(O)C(O)=C1C2=O [JW] | > 4 | > 4
CN(C)c1ccc2c(c1O)C(=O)C1=C(O)[C@]3(O)C(=O)C(C(N)=O)=C(O)[C@@H](N(C)C)[C@@H]3C[C@@H]1C2 [JX] | > 4 | < 4
COc1ccc(-c2ccc(O)c3c2C[C@H]2C[C@H]4[C@H](N(C)C)C(O)=C(C(N)=O)C(=O)[C@@]4(O)C(O)=C2C3=O)cc1CN1CCN(C)CC1 [JY] | > 4 | < 4
CN(C)[C@@H]1C(O)=C(C(N)=O)C(=O)[C@@]2(O)C(O)=C3C(=O)c4c(O)ccc(-c5ccc(CN6CCCC6)cc5)c4C[C@H]3C[C@@H]12 [JZ] | < 4 | < 4
CCN(CC)Cc1ccc(OC)c(-c2ccc(O)c3c2C[C@H]2C[C@H]4[C@@H](N(C)C)C(O)=C(C(N)=O)C(=O)[C@@]4(O)C(O)=C2C3=O)c1 [J] | < 4 | < 4
COc1ccc(-c2ccc(O)c3c2C[C@H]2C[C@H]4[C@H](N(C)C)C(O)=C(C(N)=O)C(=O)[C@@]4(O)C(O)=C2C3=O)cc1CN1CCN(CCO)CC1 [KA] | > 4 | < 4
COc1ccc(NC(=O)Nc2cc(N(C)C)c3c(c2O)C(=O)C2=C(O)[C@]4(O)C(=O)C(C(N)=O)=C(O)[C@@H](N(C)C)[C@@H]4C[C@@H]2C3)cc1 [KB] | > 4 | < 4
CN(C)[C@@H]1C(O)=C(C(N)=O)C(=O)[C@@]2(O)C(O)=C3C(=O)c4c(O)ccc(CN(CC5CC5)CC5CC5)c4C[C@H]3C[C@@H]12 [KC] | < 4 | < 4
COC(CN(Cc1ccc(O)c2c1C[C@H]1C[C@H]3[C@@H](N(C)C)C(O)=C(C(N)=O)C(=O)[C@@]3(O)C(O)=C1C2=O)CC(OC)OC)OC [KD] | > 4 | < 4
CCC(C)CNCc1ccc(O)c2c1C[C@H]1C[C@H]3[C@H](N(C)C)C(O)=C(C(N)=O)C(=O)[C@@]3(O)C(O)=C1C2=O (stereo partly shown) [KE] | < 4 | < 4
CN(C)[C@@H]1C(O)=C(C(N)=O)C(=O)[C@@]2(O)C(O)=C3C(=O)c4c(O)ccc(CNCc5cccn5C)c4C[C@H]3C[C@@H]12 [KG] | < 4 | < 4
CN(C)[C@@H]1C(O)=C(C(N)=O)C(=O)[C@@]2(O)C(O)=C3C(=O)c4c(O)ccc(CNCc5ccc[nH]5)c4C[C@H]3C[C@@H]12 [KH] | < 4 | < 4
CCN(CC)Cc1ccc(O)c2c1C[C@H]1C[C@H]3[C@@H](N(C)C)C(O)=C(C(N)=O)C(=O)[C@@]3(O)C(O)=C1C2=O [KI] | < 4 | < 4
CN(C)[C@@H]1C(O)=C(C(N)=O)C(=O)[C@@]2(O)C(O)=C3C(=O)c4c(O)ccc(CN5CCCCC5)c4C[C@H]3C[C@@H]12 [KJ] | < 4 | < 4
CC(C)NCc1ccc(O)c2c1C[C@H]1C[C@H]3C(N(C)C)C(O)=C(C(N)=O)C(=O)[C@@]3(O)C(O)=C1C2=O (stereo partly shown) [KK] | < 4 | < 4
CN(C)c1cc(NC2CCN(Cc3ccccc3)CC2)c(O)c2c1C[C@H]1C[C@H]3[C@H](N(C)C)C(O)=C(C(N)=O)C(=O)[C@@]3(O)C(O)=C1C2=O [KM] | > 4 | > 4
CNCC#Cc1ccc(O)c2c1C[C@H]1C[C@H]3[C@H](N(C)C)C(O)=C(C(N)=O)C(=O)[C@@]3(O)C(O)=C1C2=O [KR] | < 4 | < 4
CN(C)[C@@H]1C(O)=C(C(N)=O)C(=O)[C@@]2(O)C(O)=C3C(=O)c4c(O)c(N)cc(-c5ccoc5)c4C[C@H]3C[C@@H]12 [KT] | < 4 | < 4
CN(C)c1cc(-c2ccoc2)c(O)c2c1C[C@H]1C[C@H]3[C@H](N(C)C)C(O)=C(C(N)=O)C(=O)[C@@]3(O)C(O)=C1C2=O [KU] | > 4 | < 4
